For 53 compounds, IC50 results are on record in patent US8163737B2 (Vertex Pharmaceuticals Incorporated, priority 2006, dated 2012).

The IC50 is the point on the concentration scale where inhibition reaches its midpoint.

endogenous CGRP receptor, sequence (Q16602 23-461): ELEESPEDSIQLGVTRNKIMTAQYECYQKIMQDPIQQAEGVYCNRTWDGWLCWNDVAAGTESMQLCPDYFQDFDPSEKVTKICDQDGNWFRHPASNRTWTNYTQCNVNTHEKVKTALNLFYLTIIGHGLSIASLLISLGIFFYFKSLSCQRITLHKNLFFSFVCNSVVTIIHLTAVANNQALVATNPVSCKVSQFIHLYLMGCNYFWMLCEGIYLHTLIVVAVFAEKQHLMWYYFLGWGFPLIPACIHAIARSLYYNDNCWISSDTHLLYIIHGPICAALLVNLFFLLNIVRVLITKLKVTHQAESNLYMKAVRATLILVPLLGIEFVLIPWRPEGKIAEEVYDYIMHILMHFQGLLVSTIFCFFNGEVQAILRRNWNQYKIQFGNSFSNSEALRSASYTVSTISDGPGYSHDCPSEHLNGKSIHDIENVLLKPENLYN
endogenous CGRP receptor, sequence (O60894 27-148): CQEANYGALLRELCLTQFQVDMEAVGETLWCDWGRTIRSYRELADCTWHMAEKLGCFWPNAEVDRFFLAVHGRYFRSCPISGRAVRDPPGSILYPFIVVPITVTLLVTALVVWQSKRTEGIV

This assay addresses endogenous CGRP receptor (Homo sapiens, UniProt O60894+Q16602). Description: CGRP functional antagonism using SK-N-MC-BLA (4C10), β-lactamase transcriptional reporter assay. In kind it is cell-based. The conditions noted are these: SK-N-MC (4C10) cells, inhibition of β-lactamase expression in the presence of 200 pM CGRP. An excerpt: Measuring CGRP Functional Antagonism Using SK-N-MC-BLA (4C10):
CGRP functional antagonism was characterized in a cell based transcriptional assay using a recombinant SK-N-MC line. To introduce the transcriptional reporter system, SK-N-MC cell line was transduced with a retroviral vector containing β-lactamase gene downstream of cAMP responsive promoter. The expression of β-lactamase is triggered by cAMP increase that is a downstream event of activation of endogenous CGRP receptor. Single clones were separated using Fluorescent Activated Cell Sorting (FACS) based on CGRP induced β-lactamase activity. β-lactamase activity was measured using a fluorescence energy transfer (FRET) dye, CCF4. […] To evaluate functional antagonist activity of compounds in SK-N-MC (4C10) line, compounds were evaluated for their inhibition of β-lactamase expression in the presence of CGRP.
SK-N-MC (4C10) was cultured in Minimal Essential Media (MEM) (Invitrogen) supplemented with 1 mM non-essential amino acids solution (Invitrogen), 100 units/ml Penicillin-Streptomycin (Invitrogen), 1 mM sodium pyruvate (Invitrogen) and 10% fetal bovine serum. For the β-lactamase assay, low serum, 1% FBS in MEM was used. 30,000 cells were plated into each wells of poly-D-lysine coated 384-well plate (Becton Dickinson) a day prior to the assay. SK-N-MC (4C10) was preincubated with compounds for 30 min before the addition of 200 pM CGRP. The assay was incubated for 3 hours at 37° C. to allow β-lactamase expression. CCF4 dye was added and incubated for 2 hours at room temperature. […] Curve fitting and IC50 calculation were carried about using MOD3.
For `CC(C)CCN1C(=O)C(CC(=O)N2CCC(n3c(=O)[nH]c4ccccc43)CC2)SC1c1ccccc1N1CCCCC1` (centres unmarked) [Compound 292], the IC50 lay within 1000 to 5000 nM. As for `CC(C)(C)CCN1C(=O)C(CC(=O)N2CCC(N3Cc4ccccc4NC3=O)CC2)SC1c1ccccc1N1CCCCC1` (centres unmarked) [Compound 235], the IC50 is 1000 to 5000 nM.

`CC(C)N1CCN(c2c(F)cccc2[C@@H]2S[C@](C)(CC(=O)N3CCC(N4CCc5ccccc5NC4=O)CC3)C(=O)N2CCC(C)(C)C)CC1` [Compound 430]: the IC50 was more than 5000 nM. Consider `CC(C)CCN1C(=O)C(C(C)C(=O)N2CCC(N3Cc4ccccc4NC3=O)CC2)SC1c1ccccc1` (centres unmarked) [Compound 156, 3-(1-(2-(3-Isopentyl-4-oxo-2-phenylthiazolidin-5-yl)propanoyl)piperidin-4-yl)-3,4-dihydroquinazolin-2(1H)-one], for which the IC50 was less than 1000 nM.

As for `CC(C)CCN1C(=O)C(CC(=O)N2CCC(N3Cc4ccccc4NC3=O)CC2)SC1c1ccc(N(C)C)cc1` (centres unmarked) [Compound 124], the IC50 was in the range of 1000 to 5000 nM. Then `CCN1C(=O)C(CC(=O)N2CCC(N3Cc4ccccc4NC3=O)CC2)SC1c1ccccc1` (centres unmarked) [Compound 177], with 1000 to 5000 nM. As for `O=C(CC1SC(c2ccccc2F)N(CC2CCCCC2)C1=O)N1CCC(N2Cc3ccccc3NC2=O)CC1` (centres unmarked) [Compound 126], the IC50 was less than 1000 nM. With `Cc1ccc(C2SC(CC(=O)N3CCC(N4Cc5ccccc5NC4=O)CC3)C(=O)N2CCC(C)C)c(C)c1` (centres unmarked) [Compound 222], the IC50 was less than 1000 nM. In the case of `CN1CCN(c2c(Cl)cccc2C2SC(CC(=O)N3CCC(n4cc(-c5ccccc5)[nH]c4=O)CC3)C(=O)N2CCC(C)(C)C)CC1` (centres unmarked) [Compound 358], the IC50 was more than 5000 nM. For the compound `CC(C)(C)CCN1C(=O)C(CC(=O)N2CCC(n3c(=O)[nH]c4ccccc43)CC2)SC1c1ccccc1N1CCOCC1` (centres unmarked) [Compound 300], the IC50 is less than 1000 nM. Turning to `Cc1ccc(C2SC(CC(=O)N3CCC(N4CCc5ccccc5NC4=O)CC3)C(=O)N2CCC(C)C)c(C)c1` (centres unmarked) [Compound 73], the IC50 is less than 1000 nM. Consider `CN1CCN(c2ccccc2[C@@H]2S[C@](C)(CC(=O)N3CCC(N4Cc5ccccc5NC4=O)CC3)C(=O)N2CCC(C)(C)C)CC1` [Compound 333], for which the IC50 is 1000 to 5000 nM.

For the compound `CC(C)CCN1C(=O)C(CC(=O)N2CCC(N3Cc4ccccc4NC3=O)CC2)SC1c1ccc(Cl)cc1` (centres unmarked) [Compound 158], the IC50 lay within 1000 to 5000 nM. For `CC(C)(C)CCN1C(=O)C(CC(=O)N2CCC(N3Cc4ccccc4NC3=O)CC2)SC1c1cccc2cc[nH]c12` (centres unmarked) [Compound 94], the IC50 was more than 5000 nM. With `CC(C)CCN1C(=O)C(CC(=O)N2CCC(N3CCc4ccccc4NC3=O)CC2)SC1c1ccc(F)c(F)c1` (centres unmarked) [Compound 155], the IC50 was less than 1000 nM.

Turning to `CC(C)CCN1C(=O)C(CC(=O)N2CCC(N3CCc4ccccc4NC3=O)CC2)SC1C1CCOCC1` (centres unmarked) [Compound 258], the IC50 was in the range of 1000 to 5000 nM.

For the compound `CN1CCN(c2ccccc2C2SC(CC(=O)N3CCC4(CC3)CC(=O)c3ccccc3O4)C(=O)N2CCC(C)(C)C)CC1` (centres unmarked) [Compound 332], the IC50 is more than 5000 nM.

With `CN1CCN(c2c(F)cccc2C2SC(CC(=O)N3CCC(n4c(=O)[nH]c5ccccc54)CC3)C(=O)N2CCC(C)(C)C)CC1` (centres unmarked) [Compound 338], the IC50 is less than 1000 nM. With `O=C(CC1SC(c2ccccc2)N(CCC(F)(F)F)C1=O)N1CCC(N2CCc3ccccc3NC2=O)CC1` (centres unmarked) [Compound 280] the figure was less than 1000 nM; with `CN1CCN(c2ccccc2C2SC(CC(=O)N3CCC(N4CCc5ccccc5NC4=O)CC3)C(=O)N2CCC(C)(C)C)CC1` (centres unmarked) [Compound 34], less than 1000 nM; with `CCCN1C(=O)[C@H](CC(=O)N2CCC(N3CCc4ccccc4NC3=O)CC2)SC1c1cccc(F)c1N1CCN(C(C)(C)C)CC1` (some centres unmarked) [Compound 537], less than 1000 nM. On to `CC(C)CCN1C(=O)C(CC(=O)N2CCC(N3CCc4ccccc4NC3=O)CC2)SC1c1c(F)cccc1Cl` (centres unmarked) [Compound 221], for which the IC50 was less than 1000 nM. Then `CC(C)(C)CCN1C(=O)C(CC(=O)N2CCC(N3Cc4ccccc4NC3=O)CC2)SC12c1ccccc1-c1ccccc12` (centres unmarked) [Compound 309], with 1000 to 5000 nM; and `CN1CCN(c2ccccc2[C@@H]2SC(CC(=O)N3CCC(n4c(=O)[nH]c5ccccc54)CC3)C(=O)N2CCC(C)(C)C)CC1` (some centres unmarked) [Compound 161], with less than 1000 nM. Take `O=C(CC1SC(c2ccccc2)N(CC(F)(F)C(F)(F)F)C1=O)N1CCC(N2Cc3ccccc3NC2=O)CC1` (centres unmarked) [Compound 36]: the IC50 is less than 1000 nM. In the case of `CN(C)C1CCN(c2ccccc2C2SC(CC(=O)N3CCC(N4CCc5ccccc5NC4=O)CC3)C(=O)N2CCC(C)(C)C)CC1` (centres unmarked) [Compound 419], the IC50 was 1000 to 5000 nM.

Take `CC(C)CCN1C(=O)C(CC(=O)N2CCC(N3Cc4ccccc4NC3=O)CC2)SC12CCOCC2` (centres unmarked) [Compound 196]: the IC50 was in the range of 1000 to 5000 nM. Turning to `Cc1c(F)cccc1C1SC(CC(=O)N2CCC(N3CCc4ccccc4NC3=O)CC2)C(=O)N1CCC(C)C` (centres unmarked) [Compound 26], the IC50 is less than 1000 nM. On to `CC(C)CCN1C(=O)C(CC(=O)N2CCC3(CC2)CNC(=O)O3)SC1c1ccccc1` (centres unmarked) [Compound 261], for which the IC50 was more than 5000 nM.

Consider `COCC(C)N1C(=O)C(CC(=O)N2CCC(N3Cc4ccccc4NC3=O)CC2)SC1c1ccccc1` (centres unmarked) [Compound 250], for which the IC50 is more than 5000 nM.

In the case of `CC(C)CCN1C(=O)C(CC(=O)N2CCC(N3Cc4ccccc4NC3=O)CC2)SC1c1ccc2c(c1)OCCN2C` (centres unmarked) [Compound 232], the IC50 is 1000 to 5000 nM. Consider `CC(C)CCN1C(=O)C(CC(=O)N2CCC(N3CCc4ccccc4NC3=O)CC2)SC1c1cccc(C(F)(F)F)c1F` (centres unmarked) [Compound 23], for which the 50% inhibitory concentration (IC50) is less than 1000 nM. For the compound `O=C(CC1SC(c2ccccc2)N(Cc2cccnc2)C1=O)N1CCC(N2CCc3ccccc3NC2=O)CC1` (centres unmarked) [Compound 185], the IC50 is less than 1000 nM.

Consider `CCN(CC)CCN1C(=O)C(CC(=O)N2CCC(N3Cc4ccccc4NC3=O)CC2)SC1c1ccccc1` (centres unmarked) [Compound 82], for which the IC50 lay in the range of 1000 to 5000 nM.

As for `Cc1cc(C)c(C2SC(CC(=O)N3CCC(N4CCc5ccccc5NC4=O)CC3)C(=O)N2CCC(C)C)c(C)c1` (centres unmarked) [Compound 21], the IC50 is less than 1000 nM. As to `CC(C)N1CCN(c2cccc(Cl)c2C2S[C@@H](CC(=O)N3CCC(n4c(=O)[nH]c5ncccc54)CC3)C(=O)N2CCC(C)(C)C)CC1` (some centres unmarked) [Compound 438], the IC50 was less than 1000 nM. With `CC(C)(C)CCN1C(=O)[C@H](CC(=O)N2CCC(n3c(=O)[nH]c4ncccc43)CC2)S[C@H]1c1cccc(F)c1N1CCNCC1` [Compound 546] the figure was less than 1000 nM. For the compound `CC(C)N1CCN(c2c(F)cccc2C2SC(CC(=O)N3CCC(n4cc(-c5ccccc5)[nH]c4=O)CC3)C(=O)N2CCC(C)(C)C)CC1` (centres unmarked) [Compound 342], the IC50 is 1000 to 5000 nM. For the compound `CC(C)(C)CCN1C(=O)C(CC(=O)N2CCC(N3Cc4ccccc4NC3=O)CC2)SC1c1cccc2cc[nH]c12` (centres unmarked) [Compound 168], the IC50 lay within 1000 to 5000 nM. Then `CC(C)CCN1C(=O)C(CC(=O)N2CCC(N3CCc4ccccc4NC3=O)CC2)SC1c1cccc(OC(F)(F)C(F)F)c1` (centres unmarked) [Compound 247], with 1000 to 5000 nM; and `CCCCCCCC1SC(CC(=O)N2CCC(N3Cc4ccccc4NC3=O)CC2)C(=O)N1CCC(C)C` (centres unmarked) [Compound 71], with more than 5000 nM. In the case of `CC(C)CCN1C(=O)C(CC(=O)N2CCC(N3Cc4ccccc4NC3=O)CC2)SC1C1CCOCC1` (centres unmarked) [Compound 201], the IC50 is 1000 to 5000 nM. Regarding `CC(=O)N1CCC2(CCN(C(=O)CC3SC(c4ccccc4)N(CCC(C)C)C3=O)CC2)c2ccccc21` (centres unmarked) [Compound 157], the IC50 is more than 5000 nM.

With `CC(C)(C)CCN1C(=O)C(CC(=O)N2CCC(N3Cc4ccccc4NC3=O)CC2)SC1c1c[nH]cn1` (centres unmarked) [Compound 305], the IC50 lay in the range of 1000 to 5000 nM. Consider `CN1CCCC1CCN1C(=O)C(CC(=O)N2CCC(N3Cc4ccccc4NC3=O)CC2)SC1c1ccccc1` (centres unmarked) [Compound 77], for which the 50% inhibitory concentration (IC50) was more than 5000 nM. Take `O=C(CC1SC(c2ccc(F)cc2F)N(CC2CCCCC2)C1=O)N1CCC(N2Cc3ccccc3NC2=O)CC1` (centres unmarked) [Compound 137]: the IC50 is less than 1000 nM. `CC(C)CCN1C(=O)C(CC(=O)N2CCC(N3Cc4ccccc4NC3=O)CC2)SC12C=CC(C)(C)CC2` (centres unmarked) [Compound 241]: the IC50 lay within 1000 to 5000 nM. Regarding `CC(C)(C)CCN1C(=O)C(CC(=O)N2CCC(N3CCc4ccccc4NC3=O)CC2)SC1c1c[nH]cn1` (centres unmarked) [Compound 313], the IC50 was less than 1000 nM. For the compound `CN1CCN(c2ccccc2[C@@H]2SC(CC(=O)N3CCC(n4c(=O)[nH]c5ncccc54)CC3)C(=O)N2CCC(C)(C)C)CC1` (some centres unmarked) [Compound 274], the IC50 was less than 1000 nM. For the compound `C[C@@H]1CN(c2c(F)cccc2[C@@H]2S[C@@H](CC(=O)N3CCC(N4CCc5ccccc5NC4=O)CC3)C(=O)N2CCC(C)(C)C)C[C@H](C)N1` [Compound 476], the IC50 was more than 5000 nM. `CC(C)CCN1C(=O)C(CC(=O)N2CCC(N3Cc4ccccc4NC3=O)CC2)SC1c1cccc(C(F)(F)F)c1F` (centres unmarked) [Compound 219]: the IC50 lay within 1000 to 5000 nM.

As for `CC(C)CCN1C(=O)C(CC(=O)N2CCC(n3c(=O)[nH]c4ncccc43)CC2)SC1c1ccccc1` (centres unmarked) [Compound 69], the IC50 was less than 1000 nM. With `O=C(CC1SC(C2CCCCC2)N(c2ccccc2)C1=O)N1CCC(n2c(=O)[nH]c3ncccc32)CC1` (centres unmarked) [Compound 424] the figure was less than 1000 nM.
